The test system of one assay is MN9D cells. The assay can be described thus: Cytotoxicity, LDH release, MPP+-treated MN9D cells. In kind it is cell-based, mouse. As to the method: Cells were transfected with Nurr1 subcloned into pcDNA3.1 vector[23] for Nurr1 overexpression (OE). […] Nurr1 OE or KD by transfection was analyzed by Western blot.
Cellular oxidative stress was detected using the DCFDA Cellular ROS Assay Kit (Abcam) according to the manufacturer’s protocol. Briefly, cells seeded in black clear bottom 96 well plate were stained with DCFDA solution (20 µM) for 45 min at 37 °C. […] Cytotoxicity was determined by measuring lactate dehydrogenase (LDH) release into the culture medium using a LDH cytotoxicity detection kit (Roche)[33]. Absorbance was measured at 490 nm with a microplate reader and cytotoxicity was calculated as a percentage (%) relative to 1% TritonX-100 control. Cell viability was determined using 3-(4,5-dimethylthiazol-2-yl)-2,5-diphenyltetrazolium bromide (MTT) as previously described. Briefly, cells were incubated with 5 mg/ml of MTT (Sigma-Aldrich) solution for 3.5 h at 37 °C. MTT formazan crystals were dissolved in 10 times the volume of MTT solvent (4 mM HCl and 0.1% Nonidet P-40 in isopropanol) and the absorbance from the generated blue formazan was measured at 570 nm after 15 min incubation at room temperature. Cell viability was calculated as a percentage (%) of MTT reduction relative to vehicle control.
For orientation: LDH in the medium is a marker of cell lysis.

Assay [1] deals with HeLa cells. The assay can be described thus: Autophagolysosome (APL) formation assay, mRFP-GFP-LC3, HeLa cells. It counts as cell-based. The following applies: CQ 20 µM, 4A7C-301 1 µM; for percentage of red dots among total LC3 dots: EBSS 6 h; for APL formation / autophagy (in words): EBSS, BafA1 10 nM. The protocol: Nurr1 transactivity was normalized to β-galactosidase activity.
(§1) HeLa and N27-A cells were transfected with tandem mRFP-GFP-LC3 (Addgene) plasmid using Lipofectamine 2000 (Invitrogen) in 24-well plates. After 24 h, cells were incubated in starvation medium (Earle’s Balanced Salt Solution, EBSS; Lonza) containing bafilomycin A1 (BafA1, 10 nM), CQ (20 µM), or 4A7C-301 (1 µM) for 6 h and then fixed with 4% formaldehyde for fluorescence detection. Images were taken using a KEYENCE microscope and red (mRFP) LC3 dots and yellow (mRFP+GFP) LC3 dots were counted from three independent wells for each treatment group. 10 cells were randomly selected and counted from each well and a total of 30 cells were analyzed for each treatment group in both HeLa and N27-A cells.

In another assay the test system is N27-A cells. Description: Autophagolysosome (APL) formation assay, mRFP-GFP-LC3, N27-A cells. In kind it is cell-based, rat. The following applies: for LC3 dots/cell, Red LC3 dots / LC3 dots/cell, Yellow LC3 dots: Figure 3b, mRFP-GFP-LC3, individual cells (30 per treatment). The protocol: as §1
In assay [2] the test system is HeLa cells. Description: Lysosomal pH detection, LysoSensor, HeLa cells. It counts as cell-based. The following applies: for Lysosomal pH: Supplementary Figure S7d, individual replicates. As to the method:
Lysosomal pH was detected as previously described. Briefly, after incubation in EBSS containing BafA1 (10 nM), CQ (20 µM), or 4A7C-301 (1 µM) for 6 h, HeLa and N27-A cells were treated with LysoSensor™ Yellow/Blue DND-160 (5 µM; Life Technology) for 45 min, followed by 2 washes in HEPES buffer (Gibco). Fluorescence images at excitation/emission wavelengths of 360/460 nm and 470/525 nm were taken immediately using a 400 nm dichroic mirror (KEYENCE). The ratio of fluorescence intensities (F360/470) were measured and calculated manually using ImageJ for each cell. The average pH from measuring 5 cells from each of three wells for each treatment group in both HeLa and N27-A cells was calculated by fitting the F360/470 values to a plotted pH calibration curve with KCl/NaCl buffered from pH 3.5 to 7.0 using GraphPad Prism (Version 8.0.2).

In assay [3] the test system is MPTP-induced male mice. Description: Cylinder test, MPTP-induced PD model mice. It counts as in vivo, mouse. The note with it: for Number of rearing: Figure 4d, MPTP-induced mice, individual animal values. The protocol:
(§2) MPTP (Sigma-Aldrich) was intraperitoneally (i.p.) injected (30 mg/kg) for 5 days (Day 1-5). […] To test dyskinetic involuntary behavior, an L-DOPA injected group was included, which received 50 mg/kg of L-DOPA and 15 mg/kg of benserazide (Sigma-Aldrich) (i.p.) for 16 days (Day 1–16). All compounds were administered 6 h post-MPTP injection to avoid any effect of compounds on the MPTP metabolism in the brain. Motor and non-motor related behavior tests were performed on the following days as described in Fig. 4a in an assessor- and observer-blinded fashion. Pre-training and baseline setup for motor-related behaviors were performed 3 days prior to the injections. Mice were sacrificed and subjected to immunohistochemistry. Mice were housed at the Animal Care Facilities of McLean Hospital under a 12-h light/12-h dark cycle, ambient temperature and humidity. Animals were handled in accordance with McLean Hospital’s Institutional Animal Care and Use Committee (Protocol #: 2015N000002) and followed National Institutes of Health guidelines.
Mice were placed in a transparent plastic cylinder (15.5 cm high, 12.7 cm diameter) with a mirror behind it. Spontaneous activity was recorded and measured as counting the number of rearing events for 3 min session. A rear was considered only when the mouse touched the wall of the cylinder with its forelimb paws while standing on its hindlimbs (vertical movement) to count meaningful physiological movements.

Assay [4] concerns MPTP-induced male mice. The assay can be described thus: Olfactory discrimination test, MPTP-induced PD model mice. It counts as in vivo, mouse. The note with it: for olfaction, olfactory discrimination test (in words): CQ 40, 4A7C-301 5, L-DOPA 50 mg/kg/day, i.p. The protocol: as §2
The olfactory discrimination test was designed based on Prediger et al.. Briefly, mice were placed in a chamber (40 (w) × 20 (d) × 20 (h) cm) segmented with two identical compartments containing fresh sawdust (non-familiar odor) on one side and unchanged sawdust (familiar odor; maintained for 3 days before the test) on the other side. Mice could choose between one or another area by freely passing through an open door, for 5 min. Mice movements were monitored with EthoVision XT version 7.0 (Noldus) and time (s) and distance (cm) traveled in each compartment were recorded and analyzed.

Setting [5] is: Fig. S3f, MPP+, Control, CQ 100 µM, 4A7C-301 1 µM.
Where [6] appears, read: Fig. S3f, MPP+, Nurr1 KD, CQ 100 µM, 4A7C-301 1 µM.
Where [7] appears, read: Fig. S3f, MPP+, Nurr1 OE, CQ 100 µM, 4A7C-301 1 µM.
The mark [8] stands for this setting: Figure 4e, MPTP-induced mice, individual animal values.

Several values for one entry are separate records, joined by “and”; a condition that tells them apart may be missing. Equal values may be shown once.

We go through two compounds from article PMC10354055, “An optimized Nurr1 agonist provides disease-modifying effects in Parkinson’s disease models” (Nature Communications, 2023).

As to `CCN(CC)CCCC(C)Nc1ccnc2cc(Cl)ccc12` (stereo not shown) [CQ, chloroquine], the “LDH release (%)” value in the assay on MN9D cells (setting [5]) was 40.5948% and 42.0584% and 38.5456% and 42.2156%; with MN9D cells (setting [6]), 55.6098% and 56.4684%; in the assay with MN9D cells (setting [7]), 26.1572% and 27.9568% and 27.0629%; with MN9D cells (Fig. S3d, with MPP+, 1 µM), 41.5124% and 43.1347% and 42.8643%; in the assay with MN9D cells (Fig. S3d, with MPP+, 5 µM) it was 41.2806% and 41.8214% and 41.3965%; in the assay with MN9D cells (Fig. S3d, with MPP+, 10 µM), 39.6197% and 38.7699% and 40.5081%. Moreover, the “LDH release (%)” value was 38.5767% and 38.7312% and 38.1518% with MN9D cells (Fig. S3d, with MPP+, 50 µM); 37.1862% and 37.0703% and 38.1905% in the assay with MN9D cells (Fig. S3d, with MPP+, 100 µM). Also, the “percentage of red dots among total LC3 dots” value in the assay with HeLa cells [1] is 21.7%. In the assay on HeLa cells [1], the “APL formation / autophagy (in words)” value was “significantly inhibited”. Moreover, in the assay with N27-A cells, the “LC3 dots/cell, Red LC3 dots” value is 6 dots/cell (4×) and 7 dots/cell (5×) and 11 dots/cell (6×) and 10 dots/cell (2×) and 5 dots/cell (3×) and 15 dots/cell (2×) and 4 dots/cell (2×) and 8 dots/cell (2×) and 13 dots/cell and 17 dots/cell and 9 dots/cell and 2 dots/cell. The “LC3 dots/cell, Yellow LC3 dots” value with N27-A cells is 25 dots/cell (2×) and 30 dots/cell (6×) and 28 dots/cell (3×) and 20 dots/cell and 17 dots/cell (3×) and 21 dots/cell (4×) and 19 dots/cell and 22 dots/cell (2×) and 23 dots/cell (2×) and 18 dots/cell (2×) and 16 dots/cell and 29 dots/cell (2×) and 31 dots/cell. Besides, the “autophagy process (in words)” value in the assay with N27-A cells (N27-A, EBSS, CQ 20 µM, 4A7C-301 1 µM) is listed as “inhibits”. In addition, the “lysosomal pH (in words)” value in the assay on HeLa cells [2] (HeLa, BafA1 10 nM, CQ 20 µM, 4A7C-301 1 µM) is on record as “significantly increased”. Moreover, the “Lysosomal pH” value in the assay with HeLa cells [2] was 5.589 and 4.742 and 6.013 and 6.078 and 6.11 and 5.947 and 5.068 and 6.501 and 6.208 and 6.469 and 5.524 and 5.98 and 6.534 and 5.556. Besides, the Number of rearing with MPTP-induced male mice [3] was 9 and 22 and 80 and 21 and 16 and 37 and 89 and 30 and 61. For the same compound, in the assay with MPTP-induced male mice [4], the “olfaction, olfactory discrimination test (in words)” value is reported as “significantly restored”. Further, the “Velocity” value with MPTP-induced male mice [4] (setting [8]) is 3.95 cm/s and 4.45 cm/s and 4.51 cm/s and 5.91 cm/s and 5.61 cm/s and 5.73 cm/s and 4.26 cm/s and 5.02 cm/s and 3.4 cm/s and 5.27 cm/s and 6.07 cm/s.
`CCN1CCN(c2cc(N3CCN(CC)CC3)nc(NCCNc3ccnc4cc(Cl)ccc34)n2)CC1` [4A7C-301, N^1-(4,6-bis(4-ethylpiperazin-1-yl)pyrimidin-2-yl)-N^2-(7-chloroquinolin-4-yl)ethane-1,2-diamine]: the “LDH release (%)” value in the assay on MN9D cells (Fig. S1g, with MPP+, conc. 0.1 µM, replicates) was 41.8716% and 42.3575% and 42.6815%; in the assay on MN9D cells (Fig. S1g, with MPP+, conc. 0.5 µM, replicates) it was 39.0371% and 39.604% and 39.28%; with MN9D cells (Fig. S1g, with MPP+, conc. 1 µM, replicates), 37.6198% and 37.0529% and 37.2958%; with MN9D cells (Fig. S1g, with MPP+, conc. 5 µM, replicates) it was 37.2149% and 37.0124% and 37.6198%; in the assay on MN9D cells (Fig. S1g, with MPP+, conc. 10 µM, replicates), 36.486% and 37.8628% and 37.3363%; in the assay with MN9D cells (setting [5]), 38.8915% and 36.4082% and 36.6047% and 41.8443%. For the same compound, the “LDH release (%)” value is 55.7866% and 55.7395% and 56.0212% and 56.0866% in the assay with MN9D cells (setting [6]); 24.7388% and 23.725% and 24.6956% and 22.8802% in the assay on MN9D cells (setting [7]); 43.0575% and 41.9759% and 41.8986% in the assay on MN9D cells (Fig. S3d, with MPP+, 0.1 µM); 40.7398% and 41.2806% and 41.0489% with MN9D cells (Fig. S3d, with MPP+, 0.5 µM); 39.0016% and 38.0746% and 37.5724% in the assay on MN9D cells (Fig. S3d, with MPP+, 1 µM); 38.2677% and 37.7656% and 37.302% in the assay on MN9D cells (Fig. S3d, with MPP+, 5 µM). Besides, the “LDH release (%)” value in the assay with MN9D cells (Fig. S3d, with MPP+, 10 µM) was 35.5638% and 36.4136% and 37.4179%. In the assay with MN9D cells (MN9D cells, MPP+-induced cytotoxicity), the “concentration of maximal efficiency, times lower than CQ” value is given as ~ 20 times. Also, in the assay on HeLa cells [1], the “percentage of red dots among total LC3 dots” value is reported as 63.9%. The “APL formation / autophagy (in words)” value in the assay with HeLa cells [1] is reported as “did not inhibit”. Also, the “LC3 dots/cell, Red LC3 dots” value with N27-A cells is 22 dots/cell (5×) and 32 dots/cell and 15 dots/cell and 27 dots/cell (6×) and 21 dots/cell (4×) and 26 dots/cell (2×) and 34 dots/cell and 31 dots/cell (2×) and 19 dots/cell (3×) and 12 dots/cell and 17 dots/cell (2×) and 16 dots/cell and 20 dots/cell. The “LC3 dots/cell, Yellow LC3 dots” value in the assay with N27-A cells is 9 dots/cell (2×) and 10 dots/cell (3×) and 16 dots/cell (2×) and 11 dots/cell (4×) and 20 dots/cell (2×) and 3 dots/cell (2×) and 4 dots/cell (2×) and 5 dots/cell (3×) and 15 dots/cell and 17 dots/cell and 14 dots/cell (3×) and 6 dots/cell (2×) and 7 dots/cell and 2 dots/cell and 12 dots/cell. For the same compound, the “Lysosomal pH” value in the assay on HeLa cells [2] is 4.318 and 4.4486 and 4.774 and 4.612 and 4.807 and 4.905 and 4.677 and 3.797 and 4.742 and 4.872 and 3.764 and 3.96 and 3.927 and 3.536. Also, in the assay with MPTP-induced male mice [3] (CQ 40, 4A7C-301 5, L-DOPA 50 mg/kg/day, i.p., 16 days), the “motor function, cylinder test (in words)” value is “significantly rescued”. Further, in the assay with MPTP-induced male mice [3], the Number of rearing is 34 and 51 and 29 and 33 and 22 and 71 and 46. Also, the “olfaction, olfactory discrimination test (in words)” value in the assay on MPTP-induced male mice [4] is “significantly restored”. Besides, the “Velocity” value in the assay with MPTP-induced male mice [4] (setting [8]) was 4.45 cm/s and 5.11 cm/s and 5.02 cm/s and 4.95 cm/s and 5.52 cm/s and 4.32 cm/s and 6.05 cm/s and 4.65 cm/s and 4.59 cm/s. In addition, in the assay on MPTP-induced male mice [4] (Figure 4e, New bedding, MPTP-induced mice, individual animal values), the “Duration to stay (sec), New bedding” value is 163.9 s and 142.98 s and 108.88 s and 102.84 s and 124.52 s and 121.25 s and 140.21 s and 123.92 s and 115.28 s. In addition, the “Duration to stay (sec), Old bedding” value in the assay on MPTP-induced male mice [4] (Figure 4e, Old bedding, MPTP-induced mice, individual animal values) is 181.18 s and 132.3 s and 153.69 s and 187.59 s and 195.2 s and 172.27 s and 176.41 s and 155.62 s and 172.61 s.
